This assay relates to FCA-Induced Hyperalgesia. The assay can be described thus: FCA-Induced Hyperalgesia in the Guinea Pig. It is filed as in vivo. The following applies: dose of 5 mg/kg po. As to the method: (b) FCA-Induced Hyperalgesia in the Guinea Pig Compounds having a pKb>7.0 in vitro, according to model (a) were tested in this model of hyperalgesia (see WO 2004/024710 for details) and shown to be active.

Structures are written as SMILES.

Consider `Cn1c(=O)ccc2c(NC(=O)C3CCN(c4ccc(Cl)cc4)CC3)cccc21` [Example 1, 1-(4-Chlorophenyl)-N-(1-methyl-2-oxo-1,2-dihydro-5-quinolinyl)-4-piperidinecarboxamide], for which the “activity in FCA-induced hyperalgesia model” value is “significant activity”.

Values taken from patent publication US20110059979A1, “Piperidine/Cyclohexane Carboxamide Derivatives For Use as Vanilloid Receptor Modulators” (GLAXO GROUP LIMITED, priority 2003, published 2011).
